Measured values taken from patent US20200064357A1, “METHODS FOR DETERMINING AND MONITORING GASTROINTESTINAL INFLAMMATION” (Protagonist Therapeutics, Inc., priority 2016, published 2020).

Test system: Sprague-Dawley rats
Assay: Biomarkers in colon of TNBS-induced acute colitis rats (Example E1)
Type: in vivo, rat
Description: The effect of treatment with peptide inhibitors of IL23R on inflammatory markers associated with IL23 signaling was examined in a rat model of acute colitis. Acute colitis was induced in Sprague-Dawley rats by a single intra-rectal instillation of 2,4,6-Trinitrobenzenesulfonic acid (TNBS) followed by efficacy analysis at day seven. Pharmacodynamic (PD) biomarkers were examined using enzyme-linked immunosorbent assay (ELISA), quantitative reverse transcription polymerase chain reaction, or immunohistochemistry analysis of colon, feces, or serum samples obtained from colitic rats treated with Peptide 993, Peptide 1185, or Peptide 980.
Acute colitis was induced by providing 7-week-old female Sprague-Dawley rats with various dosages of 64 mg/kg or 48 mg/kg of TNBS in 50% ethanol (TNBS/ethanol) administered intrarectally at Day 0. Peptide inhibitors were administered orally two or three times a day at various dosages and were provided in drinking water at various dosages, for 8 days starting approximately 24 hours (Day −1) prior TNBS inoculation.
Levels of a number of inflammatory biomarkers were examined in the colons. The distal colon tissue samples, designated for protein expression analysis, were flash frozen after collection. For protein extraction, the samples were thawed, weighed and homogenized in the extraction buffer (PBS pH 7.2 supplemented with Protease Inhibitors, 3× volume:weight). The homogenates were centrifuged at 13 krpm at 4° C. for 15 minutes, a total of two times to remove the debris. The supernatants were saved in multiple aliquots in −80° C. and subsequently used for protein expression analysis on ELISA. The total protein in each sample was quantified using BCA assay. MPO, IL-10, IL-6, IL-17A and IL-22 biomarker protein expression in the distal colon samples was analyzed using commercially available rat ELISA kits.

[1] = protein by ELISA, vs vehicle treated controls, Peptide 993 65 mg/kg/day
[2] = protein by ELISA, vs vehicle treated controls, Peptide 993 65 mg/kg/day, Peptide 980 37 mg/kg/day

CC(=O)NC(CCCNC(=N)N)C(=O)NC1CCSCC(C(=O)NC(Cc2ccc(OCCN)cc2)C(=O)NC(Cc2ccc3ccccc3c2)C(=O)NC2(C(=O)NC(CCC(=O)O)C(=O)NC(CC(N)=O)C(=O)NC(CC(N)=O)C(N)=O)CCOCC2)NC(=O)C(CCC(N)=O)NC(=O)C(Cc2c[nH]c3ccccc23)NC(=O)C(C(C)O)NC(=O)C(CCC(N)=O)NC1=O (stereo not drawn) [Peptide 993, Ac-[(D)-Arg]-cyclo[[Abu]-QTWQC]-[Phe[4-(2-aminoethoxy)]]-[2-Nal]-[4-amino-4-carboxy-tetrahydropyran]-ENN-NH2]
IL-1β gene expression level, distal colon (data not shown, trend similar to the protein reduction): but not IL-1β
IL-1β level in colon [1]: reduced
IL-6 level in colon [1]: reduced
IL-17A level in colon [1]: reduced
IL-22 level in colon [2]: reduced
MPO level in colon [2]: reduced
